Measured values reported in PubChem BioAssay AID248 (DTP/NCI, 2004).
Several values for one entry are separate records, joined by “and”; a condition that tells them apart may be missing. Equal values may be shown once. Toxic doses and inconclusive results are not listed. Cut-off read from the data, not from the text of the source: active = T/C of 150% or more; inactive = T/C below 125%.

System: L1210 leukemia ip in BDF1 mice, survival T/C
Assay: NCI In Vivo Anticancer Drug Screen. Data for tumor model L1210 Leukemia (intraperitoneal) in B6D2F1 (BDF1) mice
Conditions: endpoint: mean survival time, higher = longer survival
How it was run: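 In this screen, tumor-bearing mice given compound are compared to those given vehicle, and their survival values are reported as a treated-to-control quotient.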

[1] = dose: 100.0 mg/kg/injection, schedule: Q01DX009 (ip), vehicle: saline with Tween-80
[2] = dose: 200.0 mg/kg/injection, schedule: Q01DX009 (ip), vehicle: saline with Tween-80
[3] = dose: 100.0 mg/kg/injection, schedule: Q01DX009 (ip), vehicle: saline
[4] = dose: 200.0 mg/kg/injection, schedule: Q01DX009 (ip), vehicle: saline
[5] = dose: 100.0 mg/kg/injection, schedule: Q04DX002 (ip), vehicle: saline with Tween-80
[6] = dose: 200.0 mg/kg/injection, schedule: Q04DX002 (ip), vehicle: saline with Tween-80
[7] = dose: 400.0 mg/kg/injection, schedule: Q04DX002 (ip), vehicle: saline with Tween-80
[8] = dose: 100.0 mg/kg/injection, schedule: Q04DX003 (ip), vehicle: saline
[9] = dose: 200.0 mg/kg/injection, schedule: Q04DX003 (ip), vehicle: saline
[10] = dose: 400.0 mg/kg/injection, schedule: Q01DX009 (ip), vehicle: saline
[11] = dose: 400.0 mg/kg/injection, schedule: Q04DX003 (ip), vehicle: saline

Measured: T/C

O=C(NC(=S)Nc1cccc2ccccc12)c1ccccc1F
inactive: dose: 100.0 mg/kg/injection, schedule: Q04DX002 (ip), vehicle: saline 102 % of control | dose: 200.0 mg/kg/injection, schedule: Q04DX002 (ip), vehicle: saline 88 % of control | dose: 400.0 mg/kg/injection, schedule: Q04DX002 (ip), vehicle: saline 102 % of control

CS\C(N)=N/N=C/C(C)=N/N=C(/N)SC
inactive: dose: 15.0 mg/kg/injection, schedule: Q01DX Z (ip), vehicle: saline 98 % of control | dose: 30.0 mg/kg/injection, schedule: Q01DX Z (ip), vehicle: saline 100 % of control | dose: 60.0 mg/kg/injection, schedule: Q01DX Z (ip), vehicle: saline 100 % of control and 105 % of control | dose: 120.0 mg/kg/injection, schedule: Q01DX Z (ip), vehicle: saline 100 % of control and 105 % of control | dose: 240.0 mg/kg/injection, schedule: Q01DX Z (ip), vehicle: saline 100 % of control | dose: 480.0 mg/kg/injection, schedule: Q01DX Z (ip), vehicle: saline 105 % of control

COc1cc(/C=N/NC(=O)c2cc(OC)c(OC)c(OC)c2)ccc1O
inactive: [1] 93 % of control | [2] 93 % of control | dose: 400.0 mg/kg/injection, schedule: Q01DX009 (ip), vehicle: saline with Tween-80 90 % of control

O=C(NC(=S)c1ccc[nH]1)Nc1ccccc1
inactive: dose: 50.0 mg/kg/injection, schedule: Q01DX009 (ip), vehicle: saline 93 % of control | [3] 90 % of control | [4] 90 % of control

Cc1cc(C)c(N(CC(=O)O)S(=O)(=O)c2ccccc2)c(C)c1I
inactive: dose: 75.0 mg/kg/injection, schedule: Q04DX003 (ip), vehicle: Klucel (hydroxypropylcellulose) (HPC) 94 % of control

O=C(/C=C/c1ccccc1)NC(=S)Nc1ncccn1
inactive: dose: 100.0 mg/kg/injection, schedule: Q01DX009 (ip), vehicle: carboxymethylcellulose (CMC) 93 % of control and 96 % of control | dose: 100.0 mg/kg/injection, schedule: Q04DX002 (ip), vehicle: carboxymethylcellulose (CMC) 96 % of control and 104 % of control | dose: 100.0 mg/kg/injection, schedule: Q04DX003 (ip), vehicle: carboxymethylcellulose (CMC) 94 % of control | dose: 200.0 mg/kg/injection, schedule: Q01DX009 (ip), vehicle: carboxymethylcellulose (CMC) 92 % of control and 96 % of control | dose: 200.0 mg/kg/injection, schedule: Q04DX002 (ip), vehicle: carboxymethylcellulose (CMC) 96 % of control and 98 % of control | dose: 200.0 mg/kg/injection, schedule: Q04DX003 (ip), vehicle: carboxymethylcellulose (CMC) 91 % of control | dose: 400.0 mg/kg/injection, schedule: Q01DX009 (ip), vehicle: carboxymethylcellulose (CMC) 96 % of control and 104 % of control | dose: 400.0 mg/kg/injection, schedule: Q04DX002 (ip), vehicle: carboxymethylcellulose (CMC) 96 % of control and 91 % of control

CC(C)/C=C/C1(C(C)C)C(=O)NC(=O)NC1=O
inactive: dose: 75.0 mg/kg/injection, schedule: Q01DX001 (ip), vehicle: carboxymethylcellulose (CMC) 94 % of control | dose: 150.0 mg/kg/injection, schedule: Q01DX001 (ip), vehicle: carboxymethylcellulose (CMC) 94 % of control

COc1ccc(NC(=S)/C(=C(/[O-])c2ccc(C)cc2)[n+]2ccccc2)cc1
inactive: dose: 100.0 mg/kg/injection, schedule: Q01DX001 (ip), vehicle: saline with Tween-80 92 % of control | [5] 95 % of control and 96 % of control | dose: 100.0 mg/kg/injection, schedule: Q04DX003 (ip), vehicle: saline with Tween-80 105 % of control and 108 % of control and 90 % of control | dose: 200.0 mg/kg/injection, schedule: Q01DX001 (ip), vehicle: saline with Tween-80 102 % of control | [6] 97 % of control and 110 % of control | dose: 200.0 mg/kg/injection, schedule: Q04DX003 (ip), vehicle: saline with Tween-80 93 % of control and 98 % of control and 105 % of control | dose: 400.0 mg/kg/injection, schedule: Q01DX001 (ip), vehicle: saline with Tween-80 94 % of control | [7] 98 % of control and 104 % of control | dose: 400.0 mg/kg/injection, schedule: Q04DX003 (ip), vehicle: saline with Tween-80 93 % of control and 95 % of control and 91 % of control

Nc1ncnn1C(=O)NCCCl
inactive: [3] 94 % of control | [8] 101 % of control | [4] 97 % of control | [9] 101 % of control | [10] 97 % of control | [11] 101 % of control

[Cl][Ni].[NH-]C(Cc1ccccc1)C(=O)O (centres undefined)
inactive: dose: 6.25 mg/kg/injection, schedule: Q04DX003 (ip), vehicle: saline 98 % of control | dose: 12.5 mg/kg/injection, schedule: Q04DX003 (ip), vehicle: saline 98 % of control | dose: 25.0 mg/kg/injection, schedule: Q04DX003 (ip), vehicle: saline 91 % of control

CCCC(CC(=O)O)OC (centres undefined)
inactive: dose: 100.0 mg/kg/injection, schedule: Q01DX001 (ip), vehicle: saline 103 % of control | dose: 200.0 mg/kg/injection, schedule: Q01DX001 (ip), vehicle: saline 110 % of control | dose: 400.0 mg/kg/injection, schedule: Q01DX001 (ip), vehicle: saline 110 % of control

CCCOP(=S)(N1CC1)N1CC1
inactive: dose: 44.0 mg/kg/injection, schedule: Q01DX001 (ip), vehicle: saline 114 % of control

C=CCC(CO)(c1ccccc1)c1ccccc1
inactive: dose: 50.0 mg/kg/injection, schedule: Q01DX009 (ip), vehicle: saline with Tween-80 97 % of control | [1] 87 % of control | [2] 97 % of control

c1ccncc1
inactive: dose: 6.25 mg/kg/injection, schedule: Q01DX009 (ip), vehicle: alcohol 96 % of control | dose: 12.5 mg/kg/injection, schedule: Q01DX009 (ip), vehicle: alcohol 93 % of control | dose: 25.0 mg/kg/injection, schedule: Q01DX009 (ip), vehicle: alcohol 93 % of control | dose: 100.0 mg/kg/injection, schedule: Q01DX009 (ip), vehicle: Klucel (hydroxypropylcellulose) (HPC) 88 % of control | [3] 93 % of control | dose: 100.0 mg/kg/injection, schedule: Q04DX003 (ip), vehicle: Klucel (hydroxypropylcellulose) (HPC) 101 % of control | [8] 101 % of control | [4] 93 % of control | dose: 200.0 mg/kg/injection, schedule: Q04DX003 (ip), vehicle: Klucel (hydroxypropylcellulose) (HPC) 106 % of control | [9] 89 % of control | [10] 86 % of control | dose: 400.0 mg/kg/injection, schedule: Q04DX003 (ip), vehicle: Klucel (hydroxypropylcellulose) (HPC) 95 % of control | [11] 91 % of control

N#C/C(=C\C1C(Cl)CCCC1Cl)C1CCC([N+](=O)[O-])CC1 (centres undefined)
inactive: [5] 101 % of control | [6] 97 % of control | [7] 101 % of control

COC(=O)c1c(C)cc(OC(=O)c2c(C)cc(OC)c(C)c2OC)c(C)c1O
inactive: dose: 50.0 mg/kg/injection, schedule: Q01DX001 (ip), vehicle: other 103 % of control | dose: 100.0 mg/kg/injection, schedule: Q01DX001 (ip), vehicle: other 97 % of control | dose: 200.0 mg/kg/injection, schedule: Q01DX001 (ip), vehicle: other 92 % of control | dose: 400.0 mg/kg/injection, schedule: Q01DX001 (ip), vehicle: other 92 % of control

N#Cc1cccc2c(/C=N\NC(N)=S)nccc12
inactive: dose: 100.0 mg/kg/injection, schedule: Q04DX002 (ip), vehicle: Klucel (hydroxypropylcellulose) (HPC) 106 % of control | dose: 200.0 mg/kg/injection, schedule: Q04DX002 (ip), vehicle: Klucel (hydroxypropylcellulose) (HPC) 95 % of control | dose: 400.0 mg/kg/injection, schedule: Q04DX002 (ip), vehicle: Klucel (hydroxypropylcellulose) (HPC) 87 % of control
